“And” between values parts separate entries of the source, which are not always exact repeats. Identical values can stand only once.
Test system: 855422-203-R-J1-PDC complex spheroid growth
Experiment: Anticancer human tumor 855422-203-R-J1-PDC patient-derived bladder carcinoma cell line growth inhibition [AhR]
Conditions: for viability, T/C: stronger effect = lower value
In short: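 Agents were dosed in half-log steps down from roughly clinical Cmax, or from 10 microM where Cmax was unknown, alone and with AhR antagonists. Read-out: percent test/control growth of tumor spheroids containing HUVEC and MSC stromal cells.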

[1] = curve of first compound, second compound 0.1 µM
[2] = curve of first compound, second compound 0.316 µM
[3] = curve of first compound, second compound 1 µM
[4] = curve of first compound, second compound 3.16 µM
[5] = curve of first compound, second compound 10 µM
[6] = second compound 0.1 µM, first compound 0.000949 µM
[7] = second compound 0.1 µM, first compound 0.003 µM
[8] = second compound 0.1 µM, first compound 0.00949 µM
[9] = second compound 0.1 µM, first compound 0.03 µM
[10] = second compound 0.1 µM, first compound 0.0949 µM
[11] = second compound 0.1 µM, first compound 0.3 µM
[12] = second compound 0.316 µM, first compound 0.000949 µM
[13] = second compound 0.316 µM, first compound 0.003 µM
[14] = second compound 0.316 µM, first compound 0.00949 µM
[15] = second compound 0.316 µM, first compound 0.03 µM
[16] = second compound 0.316 µM, first compound 0.0949 µM
[17] = second compound 0.316 µM, first compound 0.3 µM
[18] = second compound 1 µM, first compound 0.000949 µM
[19] = second compound 1 µM, first compound 0.003 µM
[20] = second compound 1 µM, first compound 0.00949 µM
[21] = second compound 1 µM, first compound 0.03 µM
[22] = second compound 1 µM, first compound 0.0949 µM
[23] = second compound 1 µM, first compound 0.3 µM
[24] = second compound 3.16 µM, first compound 0.000949 µM
[25] = second compound 3.16 µM, first compound 0.003 µM
[26] = second compound 3.16 µM, first compound 0.00949 µM
[27] = second compound 3.16 µM, first compound 0.03 µM
[28] = second compound 3.16 µM, first compound 0.0949 µM
[29] = second compound 3.16 µM, first compound 0.3 µM
[30] = second compound 10 µM, first compound 0.000949 µM
[31] = second compound 10 µM, first compound 0.003 µM
[32] = second compound 10 µM, first compound 0.00949 µM
[33] = second compound 10 µM, first compound 0.03 µM
[34] = second compound 10 µM, first compound 0.0949 µM
[35] = second compound 10 µM, first compound 0.3 µM
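Further: spheroids exposed to agents for seven days before readout.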
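Wherever viability, T/C is given: percent of DMSO vehicle control luminescence viability.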

## CC(C)CC(NC(=O)C(Cc1ccccc1)NC(=O)c1cnccn1)B(O)O (configuration not stated) + Cc1cncc(-c2nc(NCCc3c[nH]c4ccccc34)c3ncn(C(C)C)c3n2)c1
[1]
  IC50: 2.14 nM
[2]
  IC50: 2.02 nM
[3]
  IC50: 1.68 nM
[4]
  IC50: 1.29 nM
[5]
  IC50: < 0.949 nM
[6]
  viability, T/C: 93%
[7]
  viability, T/C: 32.3%
[8]
  viability, T/C: 1.54%
[9]
  viability, T/C: 0.03%
[10]
  viability, T/C: 0.02%
[11]
  viability, T/C: 0.1%
[12]
  viability, T/C: 103%
[13]
  viability, T/C: 22.5%
[14]
  viability, T/C: 2.79%
[15]
  viability, T/C: 0.01%
[16]
  viability, T/C: 0.01%
[17]
  viability, T/C: 0.09%
[18]
  viability, T/C: 90.6%
[19]
  viability, T/C: 9.23%
[20]
  viability, T/C: 1.41%
[21]
  viability, T/C: 0.02%
[22]
  viability, T/C: 0.03%
[23]
  viability, T/C: 1.34%
[24]
  viability, T/C: 66.5%
[25]
  viability, T/C: 4.56%
[26]
  viability, T/C: 0.97%
[27]
  viability, T/C: 2.11%
[28]
  viability, T/C: 0.02%
[29]
  viability, T/C: 0.68%
[30]
  viability, T/C: 4.11%
[31]
  viability, T/C: 0.69%
[32]
  viability, T/C: 0.08%
[33]
  viability, T/C: 1.49%
[34]
  viability, T/C: 0.1%
[35]
  viability, T/C: 0.73%

## O=C(C=Cc1cccc(S(=O)(=O)Nc2ccccc2)c1)NO
Compound 0.0316 µM
  viability, T/C: 84% and 110% and 92.6%
Compound 0.1 µM
  viability, T/C: 84.6% and 109% and 91.1%
Compound 0.316 µM
  viability, T/C: 88.4% and 108% and 90%
Compound 1 µM
  viability, T/C: 69% and 106% and 70.5%
Compound 3.16 µM
  viability, T/C: 29.5% and 61% and 34.7%
Compound 10 µM
  viability, T/C: 0.96% and 4.09% and 0.82%
Curve of compound
  IC50: 1770 nM and 3950 nM and 1950 nM

## COc1cc(Nc2ncc3c(n2)-c2ccc(Cl)cc2C(c2c(F)cccc2OC)=NC3)ccc1C(=O)O + Cc1cncc(-c2nc(NCCc3c[nH]c4ccccc34)c3ncn(C(C)C)c3n2)c1
[1]
  IC50: > 10000 nM
[2]
  IC50: > 10000 nM
[3]
  IC50: 987 nM
[4]
  IC50: 995 nM
[5]
  IC50: < 31.6 nM
Second compound 0.1 µM, first compound 0.0316 µM
  viability, T/C: 104%
Second compound 0.1 µM, first compound 0.1 µM
  viability, T/C: 101%
Second compound 0.1 µM, first compound 0.316 µM
  viability, T/C: 61.5%
Second compound 0.1 µM, first compound 1 µM
  viability, T/C: 55%
Second compound 0.1 µM, first compound 3.16 µM
  viability, T/C: 50.6%
Second compound 0.1 µM, first compound 10 µM
  viability, T/C: 45.4%
Second compound 0.316 µM, first compound 0.0316 µM
  viability, T/C: 98.7%
Second compound 0.316 µM, first compound 0.1 µM
  viability, T/C: 94.8%
Second compound 0.316 µM, first compound 0.316 µM
  viability, T/C: 61.4%
Second compound 0.316 µM, first compound 1 µM
  viability, T/C: 52.4%
Second compound 0.316 µM, first compound 3.16 µM
  viability, T/C: 52.5%
Second compound 0.316 µM, first compound 10 µM
  viability, T/C: 50.7%
Second compound 1 µM, first compound 0.0316 µM
  viability, T/C: 99%
Second compound 1 µM, first compound 0.1 µM
  viability, T/C: 90.5%
Second compound 1 µM, first compound 0.316 µM
  viability, T/C: 63.2%
Second compound 1 µM, first compound 1 µM
  viability, T/C: 49.3%
Second compound 1 µM, first compound 3.16 µM
  viability, T/C: 48.6%
Second compound 1 µM, first compound 10 µM
  viability, T/C: 48.2%
Second compound 3.16 µM, first compound 0.0316 µM
  viability, T/C: 82.8%
Second compound 3.16 µM, first compound 0.1 µM
  viability, T/C: 75.9%
Second compound 3.16 µM, first compound 0.316 µM
  viability, T/C: 59.7%
Second compound 3.16 µM, first compound 1 µM
  viability, T/C: 48.6%
Second compound 3.16 µM, first compound 3.16 µM
  viability, T/C: 52.2%
Second compound 3.16 µM, first compound 10 µM
  viability, T/C: 44.8%
Second compound 10 µM, first compound 0.0316 µM
  viability, T/C: 27.9%
Second compound 10 µM, first compound 0.1 µM
  viability, T/C: 26.7%
Second compound 10 µM, first compound 0.316 µM
  viability, T/C: 14.8%
Second compound 10 µM, first compound 1 µM
  viability, T/C: 11.4%
Second compound 10 µM, first compound 3.16 µM
  viability, T/C: 22.5%
Second compound 10 µM, first compound 10 µM
  viability, T/C: 26.4%

## Nc1ncn(C2CC(O)C(CO)S2)c(=O)n1 (configuration not stated) + Cc1cncc(-c2nc(NCCc3c[nH]c4ccccc34)c3ncn(C(C)C)c3n2)c1
[1]
  IC50: > 300 nM
[2]
  IC50: > 300 nM
[3]
  IC50: > 300 nM
[4]
  IC50: 1.28 nM
[5]
  IC50: < 0.949 nM
[6]
  viability, T/C: 92.3%
[7]
  viability, T/C: 101%
[8]
  viability, T/C: 92.9%
[9]
  viability, T/C: 90.4%
[10]
  viability, T/C: 84.7%
[11]
  viability, T/C: 72.2%
[12]
  viability, T/C: 90.1%
[13]
  viability, T/C: 83.8%
[14]
  viability, T/C: 77.4%
[15]
  viability, T/C: 85%
[16]
  viability, T/C: 78.2%
[17]
  viability, T/C: 69.8%
[18]
  viability, T/C: 74.1%
[19]
  viability, T/C: 88.2%
[20]
  viability, T/C: 77.3%
[21]
  viability, T/C: 73.6%
[22]
  viability, T/C: 79.1%
[23]
  viability, T/C: 77.1%
[24]
  viability, T/C: 49.1%
[25]
  viability, T/C: 51.8%
[26]
  viability, T/C: 41.9%
[27]
  viability, T/C: 25.1%
[28]
  viability, T/C: 42%
[29]
  viability, T/C: 37.5%
[30]
  viability, T/C: 28.3%
[31]
  viability, T/C: 26.9%
[32]
  viability, T/C: 19.7%
[33]
  viability, T/C: 15.5%
[34]
  viability, T/C: 22.8%
[35]
  viability, T/C: 24.3%

From PubChem BioAssay AID1919005 (Molecular Pharmacology Branch, DTP, NCI, 2023)
